Laboratory results taken from article PMC3567211 (2012).

System: TGGCTT (5'-biotin labeled hairpin DNA) (DNA, hairpin) CCTTGGCTTCTTTTGAAGCCAAGG
Experiment: SPR, global kinetic 1:1 fit
Conditions: 50 mM Na+ (NaCl); 10 mM HEPES, 1 mM EDTA, 0.05% P20, pH 7.4, 25 °C

With `CN(C)CCCNC(=O)CCNC(=O)c1cc(NC(=O)c2cc(NC(=O)c3nc(NC(=O)c4cc(NC(=O)CCCNC(=O)c5cc(NC(=O)c6cc(NC(=O)c7nc(NC(=O)c8nccn8C)cn7C)cn6C)cn5C)cn4C)cn3C)cn2C)cn1C` the KA was 37 ± 7 × 10^8 M^-1.
